# From ChEMBL document CHEMBL1201862, “PubChem BioAssay data set” (2004)
# Activity calls are given as the source filed them.
# Experiments:
# [1] = bead-based luminescence quenchers, dual-tagged ARNT – biochemical, AlphaScreen, cherry-pick, artefact control for ARNT-TACC3 interaction inhibitor project, dose response (AID 651705); assay type: functional;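 note: AlphaScreen bead proximity signal that flags compounds interfering with the detection technology; potency reflects signal decrease which marks the compound as an assay artifact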
# [2] = target: T1, Interleukin-8 (Homo sapiens, UniProt P10145); experiment: Dose Response confirmation of uHTS small molecule hits for cystic fibrosis induced NFkb Inhibitors in a TNFa-induced IL8 counterscreen.; assay type: functional; details: read-out: IC50_Mean
# [3] = target: T1, Interleukin-8; experiment: Dose Response confirmation of uHTS small molecule hits for cystic fibrosis induced NFkb Inhibitors in a PAF-induced IL8 counterscreen.; assay type: functional; details: read-out: IC50_Mean
# [4] = NIH-3T3 fibroblast cytotoxicity, dose response, cytotoxicity control, cell-based, fluorescence, Alamar Blue, secondary assay (AID 2327); assay type: functional;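 note: NIH-3T3 mouse fibroblasts cultured with fluconazole at 8 µg/mL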
# [5] = fluconazole-exposed Candida albicans growth modulators – fluorescence, retest, confirmation (AID 2467); assay type: functional, cell-based
# [6] = THP-1 cell cytotoxicity, dose response, cytotoxicity control for non-replicating M. tuberculosis project (AID 489025); assay type: functional
# [7] = target: T2, Ubiquitin-conjugating enzyme E2 N (Homo sapiens, UniProt P61088); assay type: functional;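 note: Dose-response confirmation in a TR-FRET assay detecting UBC13-driven polyubiquitin chain formation, inhibition measured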
# T2 sequence (P61088 whole entry): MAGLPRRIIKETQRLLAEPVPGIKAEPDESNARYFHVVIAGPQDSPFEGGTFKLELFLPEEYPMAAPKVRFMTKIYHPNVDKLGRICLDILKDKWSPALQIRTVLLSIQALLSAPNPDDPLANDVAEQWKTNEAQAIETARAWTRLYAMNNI
# [8] = cells; assay type: functional
# [9] = tested on: INS1; experiment: INS-1E survival protection against cytokine death – cell-based, luminescence, retest, dose response (AID 449756); assay type: functional; details: Rattus norvegicus;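 note: cell death triggered by IL-1 beta plus TNF-alpha plus IFN-gamma mixture; protective hits raise ATP signal compared with cytokine alone wells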
# [10] = target: T3, Multidrug resistance protein CDR2 (Candida albicans (strain SC5314 / ATCC MYA-2876) (Yeast), UniProt P78595); experiment: blockers of Nile Red efflux by Candida CDR2 – S. cerevisiae AD1-8u, singleplex, Cherry Pick2 set, dose response (AID 623994); assay type: functional; details: read-out: EC50_MICROM
# T3 sequence (P78595 whole entry): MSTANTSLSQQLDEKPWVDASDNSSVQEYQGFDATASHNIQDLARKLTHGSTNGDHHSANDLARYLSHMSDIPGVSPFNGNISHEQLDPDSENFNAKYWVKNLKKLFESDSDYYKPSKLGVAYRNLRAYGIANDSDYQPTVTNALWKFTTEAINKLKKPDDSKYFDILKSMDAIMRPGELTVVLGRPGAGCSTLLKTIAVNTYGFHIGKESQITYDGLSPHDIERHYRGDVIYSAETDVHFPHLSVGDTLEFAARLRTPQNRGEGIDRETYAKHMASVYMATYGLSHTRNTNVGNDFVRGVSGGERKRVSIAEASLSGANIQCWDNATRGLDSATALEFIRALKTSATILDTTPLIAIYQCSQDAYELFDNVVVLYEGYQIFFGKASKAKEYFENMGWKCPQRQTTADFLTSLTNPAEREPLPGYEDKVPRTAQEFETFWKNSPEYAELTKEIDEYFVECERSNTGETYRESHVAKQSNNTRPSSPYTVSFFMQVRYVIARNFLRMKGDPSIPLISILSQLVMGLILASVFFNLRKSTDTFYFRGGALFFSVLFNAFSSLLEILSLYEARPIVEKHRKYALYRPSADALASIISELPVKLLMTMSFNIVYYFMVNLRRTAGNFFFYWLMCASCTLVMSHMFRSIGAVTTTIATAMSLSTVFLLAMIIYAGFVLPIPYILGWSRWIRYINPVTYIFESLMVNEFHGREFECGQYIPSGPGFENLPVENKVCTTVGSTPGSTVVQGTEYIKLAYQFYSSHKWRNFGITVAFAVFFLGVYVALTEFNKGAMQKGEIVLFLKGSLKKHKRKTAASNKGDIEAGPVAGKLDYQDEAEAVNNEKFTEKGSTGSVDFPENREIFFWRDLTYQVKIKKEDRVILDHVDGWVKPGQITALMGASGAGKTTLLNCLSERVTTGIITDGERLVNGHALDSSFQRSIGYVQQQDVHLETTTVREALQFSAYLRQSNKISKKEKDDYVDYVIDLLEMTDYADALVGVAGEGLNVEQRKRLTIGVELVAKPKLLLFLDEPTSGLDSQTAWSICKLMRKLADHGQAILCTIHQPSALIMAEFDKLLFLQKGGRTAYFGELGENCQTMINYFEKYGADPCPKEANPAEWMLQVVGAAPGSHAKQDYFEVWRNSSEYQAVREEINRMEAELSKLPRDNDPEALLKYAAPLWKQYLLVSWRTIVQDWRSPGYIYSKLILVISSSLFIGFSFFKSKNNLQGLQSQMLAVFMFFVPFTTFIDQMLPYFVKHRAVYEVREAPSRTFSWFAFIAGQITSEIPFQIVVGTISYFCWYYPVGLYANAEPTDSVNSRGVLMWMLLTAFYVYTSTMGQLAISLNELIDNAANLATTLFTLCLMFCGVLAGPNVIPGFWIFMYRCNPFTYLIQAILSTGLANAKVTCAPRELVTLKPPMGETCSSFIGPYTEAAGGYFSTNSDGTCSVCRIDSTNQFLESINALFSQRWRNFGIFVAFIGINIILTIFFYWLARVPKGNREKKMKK
# [11] = target: Adenosylmethionine-8-amino-7-oxononanoate aminotransferase (Mycobacterium tuberculosis, UniProt P9WQ81); experiment: Mycobacterium tuberculosis BioA enzyme inhibitor Measured in Biochemical System Using Plate Reader - 2163-02_Inhibitor_Dose_CherryPick_Activity.; assay type: functional, Mycobacterium tuberculosis UT205
# [12] = tested on: HEK293; experiment: inhibition of NOD1-driven NF-kB reporter – cell-based, luminescence, uHTS, primary screen (AID 1578); assay type: functional; details: Homo sapiens
# [13] = tested on: HEK293; experiment: cells; assay type: functional, cell-based; details: Homo sapiens
# [14] = tested on: HEK293; experiment: cells; assay type: functional, cell-based; details: Homo sapiens; remark: listed apart in the source
# [15] = target: Nucleotide-binding oligomerization domain-containing protein 2 (Homo sapiens, UniProt Q9HC29); experiment: inhibition of NOD2-driven NF-kB reporter – cell-based, luminescence, uHTS, HEK293 (AID 1566); assay type: functional
# [16] = tested on: HEK293; experiment: NOD2 signaling inhibitors in MDP-stimulated cells, cell-based, uHTS, luminescence (AID 2001); assay type: functional; details: Homo sapiens
# [17] = tested on: HEK293; experiment: cells; assay type: functional, cell-based; details: Homo sapiens; remark: listed apart in the source
# [18] = target: Mitochondrial peptide methionine sulfoxide reductase (Bos taurus, UniProt P54149); experiment: Absorbance-based biochemical high throughput dose response assay for activators of Methionine sulfoxide reductase A (MsrA).; assay type: functional
# [19] = target: T4, Sentrin-specific protease 1 (Homo sapiens, UniProt Q9P0U3); experiment: SENP1 catalytic domain blockers, concentration series – biochemical, kinetic FRET, dose response (AID 651697); assay type: functional; details: read-out: IC50_Mean
# [20] = target: T4, Sentrin-specific protease 1; experiment: Dose response confirmation of small molecule inhibitors of the catalytic domain of the SUMO protease, SENP1 in a FRET assay.; assay type: functional; details: read-out: IC50_Mean
# [21] = target: Protein Wnt-3a (Mus musculus, UniProt P27467); experiment: antagonism of Wnt3a pathway luciferase reporter – Wnt-LIGHT cells, luminescence, selectivity assay for Gli-SUFU antagonist project, dose response (AID 651570); assay type: functional; details: read-out: IC50_Mean;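 note: Wnt-LIGHT reporter cells stimulated with conditioned medium from Wnt3a-producing cells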
# [22] = target: Melanocortin receptor 4 (Homo sapiens, UniProt P32245); assay type: functional, cell-based;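 note: Cell-based assay with luminescence read-out, confirmatory dose-response testing for agonist activity of biased ligands at MC4R; human U2OS cells with tagged receptor and beta-arrestin; potency of agonists that increase receptor coupling to beta-arrestin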
# [23] = target: Opioid receptors; mu & delta (Homo sapiens, UniProt P41143+P35372); experiment: OPRM1-OPRD1 heterodimer agonist potency – cell-based, luminescence, counter-screen for MC4R biased agonist project, dose response (AID 602264); assay type: functional
# [24] = target: T5, ATP-dependent translocase ABCB1 (Homo sapiens, UniProt P08183); experiment: inhibition of BCRP-mediated JC-1 efflux – Ig-MXP3 cells, flow cytometry, set 2, dose response (AID 504566); assay type: functional; details: read-out: EC50_MICROM_;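 note: flow cytometry median green fluorescence of retained JC-1 dye; potency of efflux pump inhibition measured as rising substrate retention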
# [25] = target: T5, ATP-dependent translocase ABCB1; experiment: P-gp JC-1 efflux blockade concentration-response – Jurkat-DNR cells, flow cytometry, set 2, dose response (AID 504569); assay type: functional; details: read-out: EC50_MICROM_;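 note: potency of pump inhibitors that raise cellular JC-1 green fluorescence up to the nicardipine level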
# [26] = Fluorescence-based cell-based high throughput dose response assay for inhibitors of the interaction of nucleotide-binding oligomerization domain containing 2 (NOD2) and the receptor-interacting serine-threonine kinase 2 (RIPK2).; assay type: functional; details: Homo sapiens
# [27] = target: Photoreceptor-specific nuclear receptor (Homo sapiens, UniProt Q9Y5X4); assay type: functional, cell-based;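 note: CHO-S cells with Gal4-NCOR and VP16-NR2E3 two-hybrid luciferase reporter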
# [28] = target: Beta Lactamase (Pseudomonas aeruginosa, UniProt Q932Y6); experiment: BLA reporter interference, concentration series – BLA reporter cells, FRET fluorescence, artefact control for NOD2-RIPK2 interaction inhibitor project, dose response (AID 651552); assay type: functional, cell-based
# [29] = target: T6, Fatty acid synthase (Homo sapiens, UniProt P49327); experiment: inhibition of human FAS-TE enzyme activity – biochemical, endpoint fluorescence intensity, uHTS hits, dose response (AID 624327); assay type: functional;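 note: fluorescence from hydrolysis of an O-methyl fluorescein acyl ester substrate by the enzyme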
# [30] = target: T6, Fatty acid synthase; experiment: inhibition of human FAS-TE enzyme activity – biochemical, kinetic fluorescence intensity, dose response (AID 624326); assay type: functional;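 note: rate of fluorescence rise from hydrolysis of a fluorogenic O-methyl fluorescein ester substrate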
# [31] = target: Large T antigen (Simian virus 40, UniProt P03070); assay type: functional, Betapolyomavirus macacae;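 note: Confirmatory-stage PubChem screen for compounds that inhibit SV40 T antigen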
# [32] = target: Bifunctional protein GlmU (Mycobacterium tuberculosis, UniProt P9WMN3); experiment: Inhibitors of Mycobacterial Glucosamine-1-phosphate acetyl transferase (GlmU). Secondary screen.; parameters: species or system Mycobacterium tuberculosis H37Rv
# [33] = target: Tyrosine-protein phosphatase non-receptor type 11 (Homo sapiens, UniProt Q06124); experiment: PTPN11 enzyme inhibitors – biochemical, selectivity assay for STEP inhibitor project, dose response (AID 602367); assay type: functional; details: read-out: IC50_Mean
# [34] = target: Dual specificity protein phosphatase 3 (Homo sapiens, UniProt P51452); experiment: VHR phosphatase inhibition, dose response, selectivity assay for STEP inhibitor project, biochemical (AID 602374); assay type: functional; details: read-out: IC50_Mean
# [35] = target: T7, Tyrosine-protein phosphatase non-receptor type 22 (Homo sapiens, UniProt Q9Y2R2); experiment: lymphoid phosphatase LYP inhibitors – biochemical, selectivity assay for STEP inhibitor project, dose response (AID 624241); assay type: functional
# T7 sequence (Q9Y2R2 whole entry): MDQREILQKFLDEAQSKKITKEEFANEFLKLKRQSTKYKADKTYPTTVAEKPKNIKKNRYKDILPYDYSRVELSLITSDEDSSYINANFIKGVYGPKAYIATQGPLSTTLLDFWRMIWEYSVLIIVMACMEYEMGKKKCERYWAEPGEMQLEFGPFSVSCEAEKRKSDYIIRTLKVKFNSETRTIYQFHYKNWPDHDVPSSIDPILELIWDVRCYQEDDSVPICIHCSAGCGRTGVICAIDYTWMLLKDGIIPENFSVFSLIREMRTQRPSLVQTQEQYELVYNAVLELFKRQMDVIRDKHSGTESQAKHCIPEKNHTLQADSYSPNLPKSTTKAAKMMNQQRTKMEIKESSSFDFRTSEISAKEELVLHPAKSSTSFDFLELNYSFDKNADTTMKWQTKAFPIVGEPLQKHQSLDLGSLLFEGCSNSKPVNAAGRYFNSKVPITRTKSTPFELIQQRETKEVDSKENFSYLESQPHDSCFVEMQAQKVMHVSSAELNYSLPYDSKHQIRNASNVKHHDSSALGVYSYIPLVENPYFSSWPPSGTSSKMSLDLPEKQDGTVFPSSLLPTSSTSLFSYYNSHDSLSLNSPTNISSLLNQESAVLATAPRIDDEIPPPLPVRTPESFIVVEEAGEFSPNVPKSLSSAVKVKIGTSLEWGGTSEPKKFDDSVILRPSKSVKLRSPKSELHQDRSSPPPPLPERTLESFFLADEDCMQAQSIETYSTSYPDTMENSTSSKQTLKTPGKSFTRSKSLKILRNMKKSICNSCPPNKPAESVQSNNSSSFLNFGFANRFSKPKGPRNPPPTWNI
# T4 sequence (Q9P0U3 whole entry, the tested form may be a part): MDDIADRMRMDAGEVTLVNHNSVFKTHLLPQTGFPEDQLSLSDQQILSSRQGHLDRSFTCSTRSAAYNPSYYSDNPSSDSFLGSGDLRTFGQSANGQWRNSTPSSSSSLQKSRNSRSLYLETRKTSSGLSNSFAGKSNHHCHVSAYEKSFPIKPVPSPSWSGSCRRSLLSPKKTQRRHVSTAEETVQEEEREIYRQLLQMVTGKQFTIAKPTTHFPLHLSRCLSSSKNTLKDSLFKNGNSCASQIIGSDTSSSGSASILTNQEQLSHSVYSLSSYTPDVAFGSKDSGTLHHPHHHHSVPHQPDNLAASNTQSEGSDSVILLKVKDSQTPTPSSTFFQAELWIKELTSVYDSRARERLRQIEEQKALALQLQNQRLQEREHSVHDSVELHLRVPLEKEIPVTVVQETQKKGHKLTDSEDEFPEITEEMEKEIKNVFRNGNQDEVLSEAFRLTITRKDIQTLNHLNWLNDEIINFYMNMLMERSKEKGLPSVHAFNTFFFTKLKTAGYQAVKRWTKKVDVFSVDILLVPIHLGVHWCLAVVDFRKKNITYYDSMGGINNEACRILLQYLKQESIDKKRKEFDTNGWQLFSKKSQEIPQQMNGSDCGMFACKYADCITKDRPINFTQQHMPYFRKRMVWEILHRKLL
# T1 sequence (P10145 whole entry): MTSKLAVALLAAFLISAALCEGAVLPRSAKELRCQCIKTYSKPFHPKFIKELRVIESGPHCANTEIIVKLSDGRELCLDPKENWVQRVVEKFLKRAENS
# T5 sequence (P08183 whole entry): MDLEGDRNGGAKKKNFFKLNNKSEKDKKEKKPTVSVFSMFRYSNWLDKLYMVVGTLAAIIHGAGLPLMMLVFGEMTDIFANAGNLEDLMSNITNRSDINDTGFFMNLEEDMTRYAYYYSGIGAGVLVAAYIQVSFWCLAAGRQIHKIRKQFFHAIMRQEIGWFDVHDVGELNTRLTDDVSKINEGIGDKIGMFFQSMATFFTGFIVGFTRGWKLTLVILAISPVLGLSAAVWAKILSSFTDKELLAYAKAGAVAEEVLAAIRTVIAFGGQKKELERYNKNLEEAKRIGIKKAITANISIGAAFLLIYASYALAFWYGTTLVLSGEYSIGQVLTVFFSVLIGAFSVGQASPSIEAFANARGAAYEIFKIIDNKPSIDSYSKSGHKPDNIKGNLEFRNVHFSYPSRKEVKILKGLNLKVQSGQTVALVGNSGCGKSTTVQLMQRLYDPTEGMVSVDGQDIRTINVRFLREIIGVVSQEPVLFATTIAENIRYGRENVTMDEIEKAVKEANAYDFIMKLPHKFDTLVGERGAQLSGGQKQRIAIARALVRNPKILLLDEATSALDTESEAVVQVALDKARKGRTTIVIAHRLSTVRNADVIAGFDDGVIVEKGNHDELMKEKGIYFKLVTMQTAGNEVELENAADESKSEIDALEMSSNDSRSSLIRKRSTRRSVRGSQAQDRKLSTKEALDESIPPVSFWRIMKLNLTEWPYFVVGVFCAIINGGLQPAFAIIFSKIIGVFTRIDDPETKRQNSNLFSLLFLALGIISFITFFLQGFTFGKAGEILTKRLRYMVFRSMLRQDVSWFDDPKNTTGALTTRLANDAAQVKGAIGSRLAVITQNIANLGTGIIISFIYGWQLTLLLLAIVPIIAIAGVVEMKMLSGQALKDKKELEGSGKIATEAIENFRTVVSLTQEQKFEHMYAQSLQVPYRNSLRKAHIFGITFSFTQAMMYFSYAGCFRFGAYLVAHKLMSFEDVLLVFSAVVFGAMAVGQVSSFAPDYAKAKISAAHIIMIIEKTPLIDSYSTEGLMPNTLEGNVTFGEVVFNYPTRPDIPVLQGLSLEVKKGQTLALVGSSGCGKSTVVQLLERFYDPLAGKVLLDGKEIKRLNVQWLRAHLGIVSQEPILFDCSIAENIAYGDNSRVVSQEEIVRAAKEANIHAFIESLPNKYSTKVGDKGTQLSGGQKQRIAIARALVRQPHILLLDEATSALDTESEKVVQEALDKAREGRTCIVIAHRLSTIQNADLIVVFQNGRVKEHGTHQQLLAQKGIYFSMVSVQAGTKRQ
# T6 sequence (P49327 whole entry): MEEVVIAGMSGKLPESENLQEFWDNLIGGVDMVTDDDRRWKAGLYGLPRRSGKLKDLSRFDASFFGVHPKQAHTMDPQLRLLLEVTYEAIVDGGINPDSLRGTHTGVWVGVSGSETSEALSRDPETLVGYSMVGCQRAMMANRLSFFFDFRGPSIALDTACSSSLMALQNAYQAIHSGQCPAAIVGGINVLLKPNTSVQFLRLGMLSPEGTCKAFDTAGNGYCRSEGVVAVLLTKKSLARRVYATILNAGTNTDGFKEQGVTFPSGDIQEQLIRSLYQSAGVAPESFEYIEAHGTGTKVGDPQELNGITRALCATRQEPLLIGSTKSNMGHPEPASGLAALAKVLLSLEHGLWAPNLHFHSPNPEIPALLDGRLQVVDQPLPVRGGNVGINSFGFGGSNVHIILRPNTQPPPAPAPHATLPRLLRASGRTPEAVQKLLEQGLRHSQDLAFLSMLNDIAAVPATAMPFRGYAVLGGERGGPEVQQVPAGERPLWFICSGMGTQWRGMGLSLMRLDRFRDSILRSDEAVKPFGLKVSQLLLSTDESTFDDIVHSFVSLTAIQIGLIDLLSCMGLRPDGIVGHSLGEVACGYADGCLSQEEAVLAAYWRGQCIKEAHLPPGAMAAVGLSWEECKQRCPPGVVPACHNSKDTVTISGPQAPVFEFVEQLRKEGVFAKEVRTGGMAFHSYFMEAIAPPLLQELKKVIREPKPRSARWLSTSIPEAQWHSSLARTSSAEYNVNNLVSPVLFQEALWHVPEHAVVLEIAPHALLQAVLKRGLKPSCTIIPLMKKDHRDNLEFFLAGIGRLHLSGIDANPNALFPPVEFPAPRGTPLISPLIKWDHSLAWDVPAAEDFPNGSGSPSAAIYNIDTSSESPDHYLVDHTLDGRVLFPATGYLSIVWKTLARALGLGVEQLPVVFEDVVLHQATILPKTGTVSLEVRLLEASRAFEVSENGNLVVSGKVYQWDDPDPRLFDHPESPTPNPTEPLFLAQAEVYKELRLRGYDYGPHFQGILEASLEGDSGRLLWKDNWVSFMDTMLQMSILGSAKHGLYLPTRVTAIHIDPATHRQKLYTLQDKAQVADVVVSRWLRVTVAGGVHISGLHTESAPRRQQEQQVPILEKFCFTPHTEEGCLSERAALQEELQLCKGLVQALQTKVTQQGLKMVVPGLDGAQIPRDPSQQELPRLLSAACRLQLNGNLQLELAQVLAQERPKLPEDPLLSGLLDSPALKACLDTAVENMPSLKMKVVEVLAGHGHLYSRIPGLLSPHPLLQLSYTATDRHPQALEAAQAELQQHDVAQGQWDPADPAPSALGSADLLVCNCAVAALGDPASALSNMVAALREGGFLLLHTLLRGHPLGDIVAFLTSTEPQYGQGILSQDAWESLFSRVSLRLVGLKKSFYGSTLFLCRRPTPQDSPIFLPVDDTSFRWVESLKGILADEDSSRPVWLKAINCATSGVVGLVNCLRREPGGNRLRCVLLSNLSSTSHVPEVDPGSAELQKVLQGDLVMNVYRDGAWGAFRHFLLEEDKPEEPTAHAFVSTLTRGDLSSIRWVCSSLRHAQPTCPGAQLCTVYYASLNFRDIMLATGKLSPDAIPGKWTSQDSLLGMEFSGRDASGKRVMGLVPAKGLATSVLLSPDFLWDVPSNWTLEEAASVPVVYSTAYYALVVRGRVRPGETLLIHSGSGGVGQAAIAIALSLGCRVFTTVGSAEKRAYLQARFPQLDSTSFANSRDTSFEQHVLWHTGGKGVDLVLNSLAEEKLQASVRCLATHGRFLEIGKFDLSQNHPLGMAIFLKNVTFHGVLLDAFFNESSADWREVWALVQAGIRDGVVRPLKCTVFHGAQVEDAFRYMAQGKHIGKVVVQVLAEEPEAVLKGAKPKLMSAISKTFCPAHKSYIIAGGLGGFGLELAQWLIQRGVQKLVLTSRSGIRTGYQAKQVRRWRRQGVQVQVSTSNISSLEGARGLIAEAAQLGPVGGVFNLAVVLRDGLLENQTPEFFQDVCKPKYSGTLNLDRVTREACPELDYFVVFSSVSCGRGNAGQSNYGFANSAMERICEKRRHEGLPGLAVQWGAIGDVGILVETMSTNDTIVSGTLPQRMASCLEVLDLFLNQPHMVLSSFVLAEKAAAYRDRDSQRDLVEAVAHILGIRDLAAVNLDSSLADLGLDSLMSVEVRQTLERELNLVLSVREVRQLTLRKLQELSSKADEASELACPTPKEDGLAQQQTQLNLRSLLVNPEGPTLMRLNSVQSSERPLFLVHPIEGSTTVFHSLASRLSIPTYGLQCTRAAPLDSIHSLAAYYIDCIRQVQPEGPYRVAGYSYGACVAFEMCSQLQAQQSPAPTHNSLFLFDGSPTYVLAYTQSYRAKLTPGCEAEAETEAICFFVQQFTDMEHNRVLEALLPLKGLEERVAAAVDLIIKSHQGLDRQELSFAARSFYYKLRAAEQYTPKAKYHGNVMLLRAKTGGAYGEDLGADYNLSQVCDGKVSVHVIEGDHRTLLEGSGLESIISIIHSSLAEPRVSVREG
# Chain of Tyrosine-protein phosphatase non-receptor type 11 (Q06124 whole entry): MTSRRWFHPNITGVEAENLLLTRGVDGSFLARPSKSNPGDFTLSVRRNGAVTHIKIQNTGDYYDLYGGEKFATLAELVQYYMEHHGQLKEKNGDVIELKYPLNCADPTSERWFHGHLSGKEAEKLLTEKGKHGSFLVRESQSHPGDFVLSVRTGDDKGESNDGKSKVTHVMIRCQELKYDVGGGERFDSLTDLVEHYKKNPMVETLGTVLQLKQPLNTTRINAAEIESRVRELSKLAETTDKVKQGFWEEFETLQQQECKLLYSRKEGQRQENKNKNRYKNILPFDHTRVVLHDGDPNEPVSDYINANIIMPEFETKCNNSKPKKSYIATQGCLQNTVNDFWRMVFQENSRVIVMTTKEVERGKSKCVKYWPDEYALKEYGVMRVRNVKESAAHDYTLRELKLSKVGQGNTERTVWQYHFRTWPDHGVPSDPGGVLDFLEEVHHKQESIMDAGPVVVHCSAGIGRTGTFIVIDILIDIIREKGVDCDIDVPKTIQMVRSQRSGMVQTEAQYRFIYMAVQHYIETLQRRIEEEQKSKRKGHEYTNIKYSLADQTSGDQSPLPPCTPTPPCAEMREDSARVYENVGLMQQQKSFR
structure (smiles),measurement,setting,value
COc1ccccc1-c1nnc(NC(=O)c2cccc(N3C(=O)CCC3=O)c2)o1,AC50,[1],133 µM (active)
COC(=O)N1C(=O)[C@@](c2ccccc2)(C(C)C)N1C(=O)OC,IC50,[2],2.15 µM (active)
same,IC50,[3],1.82 µM (active)
NC1=NC[C@H](Cc2ccccc2)N1CCCCC1CCCCC1,EC50,[4],> 160 µM (inactive)
same,EC50,[5],2.37 µM (active)
same,CC50,[6],7.59 µM (active)
same,IC50,[7],> 20 µM (inactive)
same,IC50,[8],23.6 µM (active)
same,AC50,[9],5.54 µM (active)
same,EC50,[10],34.7 µM (active)
CN1CCCC1CCOC(C)(c1ccccc1)c1ccc(Cl)cc1 (stereo not given),AC50,[11],10.6 µM (active)
Cc1ccc(NS(=O)(=O)c2ccc3c(c2)C(=O)c2ccccc2C3=O)c(C)c1,EC50,[12],6.34 µM (active)
same,IC50,[13],7.68 µM (active)
same,IC50,[14],> 20 µM (inactive)
same,EC50,[15],> 20 µM (inactive)
same,IC50,[16],6.68 µM (active)
same,IC50,[17],> 20 µM (inactive)
same,EC50,[18],> 104 µM (inactive)
COc1ccc2c(c1)c1nc3ccccc3nc1n2Cc1ccc(OC(C)C)c(OC)c1,IC50,[19],24.4 µM (inactive)
same,IC50,[20],34.7 µM (inactive)
CC(C)(C)[C@H]1COC(=O)[C@H](NC(=O)OCC2c3ccccc3-c3ccccc32)C/C=C\C[C@@H](CC(=O)N[C@@H](CO)Cc2ccccc2)C(=O)N1,IC50,[21],18.6 µM (active)
NC(Cc1ccc(C(F)(F)F)cc1)c1csc(Nc2ccc(C(=O)NCc3ccco3)cn2)n1 (stereo not given),EC50,[22],> 9.91 µM (active)
same,EC50,[23],> 7.173 µM
CC(=O)N1CCN(c2c(C)c(C)nc3cc(-c4cccc(F)c4)nn23)CC1,EC50,[24],4.22 µM (active)
same,EC50,[25],5.95 µM (inactive)
CCOC(=O)[C@]12Cc3cc(C)ccc3[C@H]1N(C1CCCCC1)C(=O)c1cc(OC)ccc12,IC50,[26],1.62 µM (active)
same,IC50,[27],4.3 µM (active)
same,IC50,[28],19.3 µM (inactive)
same,IC50,[29],5.45 µM (active)
same,IC50,[30],6.32 µM (active)
O=C(O)C(S)C(S)C(=O)O (stereo not given),IC50,[31],75.9 µM (active)
same,IC50,[32],181 µM (active)
same,IC50,[33],0.518 µM (active)
same,IC50,[34],3.22 µM (active)
same,IC50,[35],4.48 µM (active)
